Experiment [1] in a line: DPPH free radical scavenging assay. Conditions: 30 min. As to the method: (§1) The DPPH assay is a chemical assay used to determine free radical scavenging activity. The retinal pieces, liver microsomes and phospholipid oxidation models measure antioxidant activity. The calcium binding assay is a measure of the affinity of the compound for a calcium antagonist binding site. The test procedures are described in greater detail below.
Free radical scavenging activity was determined by measuring the test compound's ability to quench a ethanol solution of the free radical dye, 1,1-diphenyl-2-picrylhydrazyl, (DPPH). Test agents were dissolved in 95% ethanol and were added to a solution of DPPH in 95% ethanol. The final concentration of both the test compound and DPPH was 0.4 mMol. Absorbance was continuously recorded on a Perkin-Elmer Lamba 4B spectrophotometer. The percent quench was measured thirty minutes following the combination of the two solutions. (Free Rad. Res. Comms., volume 15, pages 91-100 (1991)).

The subject of the next experiment is bovine retinal pieces. The experiment can be described thus: Cytoprotection / lipid peroxidation (TBARS) in bovine retinal pieces after hypoxia-reoxygenation. The experiment is classed as cell-based. The protocol:
The DPPH assay is a chemical assay used to determine free radical scavenging activity. The retinal pieces, liver microsomes and phospholipid oxidation models measure antioxidant activity. The calcium binding assay is a measure of the affinity of the compound for a calcium antagonist binding site. The test procedures are described in greater detail below. The cytoprotective effects of the compounds were measured using bovine retinal pieces. […] After 50 minutes of hypoxia, test agents were added to the media to allow 10 minutes for the drug to diffuse into the tissue prior to reoxygenation. Vehicle was added to the non-drug group. Following the incubation period, the tissue was reoxygenated for 1 h. Lipid peroxidation was assessed by the formation of thiobarbituric acid reacting substances (TBARS). The tissues were homogenized and added to TCA-TBA reagent and heated in the presence of BHT. The homogenate was filtered and the absorbance of the supernatant was measured spectrophotometrically. A double derivative technique was used to calculate the concentration of TBARS present in each sample. Quantitation was based on molar extinction coefficient of 1.56×10^5.

Another experiment concerns Liver Microsomes. As to the kind of experiment: Liver microsome lipid peroxidation assay. The experiment is classed as biochemical. As to the method:
as §1
Antioxidant activity was also measured using a liver microsome assay (Chem. Biol. Interactions., volume 74, pages 233-52, (1990)). Microsomes were incubated in a KPi buffer. Lipid oxidation was initiated with ADP(1 mM)/FeCl3 (10 μM) and NADPH regenerating system, containing NADP^+. The lipid peroxidation was assayed by the TBA test. Malondialdehyde (MDA) was estimated by the formation of thiobarbituric acid-reactive substances. MDA-equivalents were calculated using ε=156 mM^- cm^-1. IC50S were calculated using regression lines.

The nature of experiment [2]: Phospholipid oxidation assay in liposomes. The format is biochemical. As to the method: as §1
Antioxidant activity was measured using a phospholipid oxidation assay. Liposomes formed from dilineoleolyl phosphocholine were exposed to Fe^+3 /EDTA (167 μM) and ascorbate (167 μM). Oxidation was measured by conjugate diene formation monitored using UV spectroscopy (Biochim. Biophys. Acta., volume 1081, pages 181-187, (1991)). The IC50 was calculated using the following non-linear regression algorithm: Y=A/[1+(B/X)^c ], wherein A=maximum, B=IC50 and c=cooperativity or relative broadness of the curves. The minimum was assumed to be zero.

A short description of a further experiment: Singlet oxygen quenching. On the set-up: key: IA: inactive. The settings on record: 37° C., ethanol/chloroform (50:50), 5 mM NDPO2. The protocol:
The singlet oxygen quenching activity was studied in the following manner. Singlet oxygen was generated chemically by using thermodissociation of the endoperoxide 3,3'-(1,4-naphthylidene dipropionate), NPDO2. At 37° C., 3 ml ethanol/chloroform (50:50) were placed in a thermosrated cuvette. Reactions were started by injection of 5 mM NDPO2. The singlet oxygen quenching constants were calculated according to Stern-Volmer plots, from S0 /S=1+(Kq+KR)*[Q}*I, where S0, S--chemiluminesence (1270 nm) intensities in absence and in the presence of quenchers, respectively, [Q} is the quencher concentration and I is the lifetime of singlet oxygen (see J. Amer. Chem., volume 111, pages 2904-2914, (1989)).

Experiment [3] addresses calcium antagonist binding site. The experiment can be described thus: Calcium binding, radioligand (nitrendipine) binding assay in rat brain cortices. Conditions: radiolabeled nitrendipine. The protocol: as §1
Calcium binding was measured using a radioligand binding assay. Brain cortices were removed from rats and a membrane fraction was prepared by standard techniques. The membrane preparation was incubated with radiolabeled nitrendipine. Non-specific binding was estimated in the presence of non-labeled nitrendipine. Membranes were filtered and washed and the filters were counted to determine radiolabelled […] Acad. Sci. USA, volume 79, pages 3656-3660 (1982), Life Sci., volume 30, pages 2191-2202, (1982).

A further experiment concerns retina of albino rats. The experiment can be described thus: Retinal light damage model (photochemical lesions, histology). The settings on record: intraperitoneal, 48 h light exposure. The experiment is classed as in vivo, rat. As to the method:
(§2) The retinoprotective properties of the compounds were measured in a light damage model. Photochemical lesions were induced in free moving unanesthetized albino rats by a single 48 h continuous broad-band florescent visible-light exposure. The rats were dosed by intraperitoneal injection 48 and 24 h prior to exposure, every 24 h during the exposure and once during the 24 h recovery period. Ocular tissues were obtained 24 h after light exposure. The tissues were analyzed using a quantitative computer image analyses system attached to the microscope. Retinal layer thickness, number of macrophages in the subretinal space, number of pyknotic nuclei in the outer nuclear layer, and retinal layer areas were parameters that were measured and statistically analyzed.
Control rats remaining on their normal 12 h light/12 h dark light cycle were devoid of retinal lesions upon microscopic examination and were assessed to have normal retinal function. […] The number of pyknotic photoreceptor nuclei was reduced by 50% in the outer nuclear layer compared to non-dosed animals.

In a further experiment the test system is retinal function of rats. The experiment can be described thus: Ocular function by electroretinography after light exposure. The format is in vivo, rat. The settings on record: ERG a-wave and b-wave after 48 h light exposure. The protocol:
as §2
Ocular function was measured using electroretinography. Rats were anesthetized after a four-day recovery period in the dark. Flash ERGs were elicited by viewing a ganzfield. Electrical responses to a series of light flashes increasing in intensity were digitized to analyze response voltage-log intensity relationships.
Retinal function was assessed by measuring the electroretinogram after 48 h light exposure. The ERG allows differential examination of photoreceptor activity (a-wave) and inner nuclear layer function (b-wave) which is correlated to retinal morphology change.

The conditions of experiment [4]: value from Free Rad. Res. Comms., volume 15, pages 91-100 (1991); cited from earlier work.
The mark [5] stands for this setting: Summary of Activity table, test compound and DPPH 0.4 mMol.
Setting [6] is: test compound and DPPH 0.4 mMol in 95% ethanol, thirty minutes.
Where [7] appears, read: Bos taurus, Summary of Activity table, bovine retinal pieces.
Where [8] appears, read: ADP (1 mM)/FeCl3 (10 μM), NADPH regenerating system, TBA test.
Where [9] appears, read: Fe^+3/EDTA (167 μM) and ascorbate (167 μM), conjugate diene formation, read-out: Phospholipid Oxidation IC50.
The mark [10] stands for this setting: Summary of Activity table, read-out: Phosopholipid Oxidation IC50.
Setting [11] is: Summary of Activity table, rat brain cortices, read-out: Ca+2 Binding IC50.
Where [12] appears, read: rat brain cortices membrane, read-out: Ca^+2 Binding IC50.

Read-outs that look alike come from different tables or passages of the source.

Consider `Cc1cc(C(C)(C)C)c(O)c(C(C)(C)C)c1` [BHT], for which the DPPH (% Quench) in [1] (setting [5]) and in experiment [1] (setting [6]) was 64% each time. In addition, the half-inhibitory concentration (IC50) turned out to be 500 nM in the experiment with bovine retinal pieces (setting [7]); 1100 nM in the experiment with Liver Microsomes (setting [8]); 1100 nM in the experiment on Liver Microsomes (Summary of Activity table); 201000 nM in experiment [2] (setting [9]); 201000 nM in experiment [2] (setting [10]). In addition, in the experiment “Singlet oxygen quenching”, the “Singlet Oxygen Quenching Kq” value is recorded as “IA”.
As for `Cc1c(C)c2c(c(C)c1O)CCC(C)(CCN1CCN(C(c3ccc(F)cc3)c3ccc(F)cc3)CC1)O2` (stereo not drawn) [Compound No. 1, 1-(4,4'-difluorobenzhydryl)-4-(6-hydroxy-2,5,7,8-tetramethylchroman-2-ethyl)piperazine], the DPPH (% Quench) in experiment [1] (setting [5]) and in [1] (setting [6]) was 99% each time. Further, the half-inhibitory concentration (IC50) with bovine retinal pieces (setting [7]) is 10 nM; with Liver Microsomes (setting [8]) it was 1000 nM; in the experiment on Liver Microsomes (Summary of Activity table), 1000 nM; in experiment [2] (setting [9]), 3600 nM; in experiment [2] (setting [10]) it was 3600 nM; in experiment [3] (setting [11]) it was 1000 to 10000 nM. Further, the 50% inhibitory concentration (IC50) in [3] (setting [12]) lay in the range of 1000 to 10000 nM. In the experiment with retina of albino rats, the “Damage to photoreceptor cells” value was “significantly minimized”. Also, the RPE damage entry in the experiment with retina of albino rats is listed as “greatly reduced”. Moreover, in the experiment on retina of albino rats, the “outer and inner segment damage (photoreceptor length)” value is “prevented outer and inner segment damage”. In addition, the “reduction of number of pyknotic photoreceptor nuclei in the outer nuclear layer” value with retina of albino rats (compared to non-dosed animals) is given as 50%. In addition, in the experiment on retina of albino rats (vs control values), the “Macrophages in the subretinal space, compared to control values” is “not greater than control values”. For the same molecule, the “Macrophages in the subretinal space, compared to non-dosed light exposed rats” value in the experiment on retina of albino rats (vs non-dosed light exposed rats) is reported as “significantly reduced”. Also, in the experiment with retinal function of rats, the “preservation of retinal function (electroretinogram)” value is on record as “Significant preservation of retinal function”.
Consider `Cc1c(C)c2c(c(C)c1O)CCC(C)(CN1CCN(C(c3ccc(F)cc3)c3ccc(F)cc3)CC1)O2` (stereo not drawn) [Compound No. 2, 1-(4,4'-difluorobenzhydryl)-4-(6-hydroxy-2,5,6,8-tetramethylchroman-2-methyl)piperazine dimaleate hemihydrate], for which the DPPH (% Quench) in [1] (setting [5]) and in experiment [1] (setting [6]) was 96% each time. Besides, the concentration for half-maximal inhibition (IC50) in the experiment with bovine retinal pieces (setting [7]) is 50 nM; in [2] (setting [9]), 180 nM; in [3] (setting [11]), 1000 to 10000 nM; in experiment [3] (setting [12]), 1000 to 10000 nM. Also, the “Singlet Oxygen Quenching Kq” value in the experiment “Singlet oxygen quenching” was 1.6e+08 M⁻¹ s⁻¹.
For `Fc1ccc(C(c2ccc(F)cc2)N2CCN(C/C=C/c3ccccc3)CC2)cc1` [Flunarizine], the half-maximal inhibitory concentration (IC50) in the experiment with Liver Microsomes (setting [8]) and with Liver Microsomes (Summary of Activity table) was 27100 nM each time. Also, the “Singlet Oxygen Quenching Kq” value in the experiment “Singlet oxygen quenching” came to 5e+06 M⁻¹ s⁻¹. The “DPPH (% Quench), literature value” in experiment [4] is 10%.
In the case of `Cc1c(C)c2c(c(C)c1O)CC[C@@](C)(CCC[C@H](C)CCC[C@H](C)CCCC(C)C)O2` [Vitamin E, α-tocopherol], the DPPH (% Quench) in experiment [1] (setting [5]) and in experiment [1] (setting [6]) was 87% each time. The IC50 in the experiment on bovine retinal pieces (Summary of Activity table, bovine retinal pieces) came to 1 nM; in the experiment on bovine retinal pieces (bovine retina, hypoxia 1 h, agent added after 50 minutes, reoxygenation 1 h, TBARS), 1 nM; in the experiment with Liver Microsomes (setting [8]), 37000 nM; with Liver Microsomes (Summary of Activity table), 37000 nM; in experiment [2] (setting [9]), 4200 nM; in experiment [2] (setting [10]) it was 4200 nM. Also, the “Singlet Oxygen Quenching Kq” value in “Singlet oxygen quenching” was found to be 1.2e+08 M⁻¹ s⁻¹. Further, the “DPPH (% Quench), literature value” in experiment [4] is 90%.

(Values after US5646149A, “Compounds having both potent calcium antagonist and antioxidant activity and use thereof as cytoprotective agents” (Alcon Laboratories, Inc., priority 1995, dated 1997).)
